Results taken from patent US20170239310A1, “Composition for Promoting Anti-Diabetic and Anti-Obesity Effects, Comprising Herbal Extract” (DONGGUK UNIVERSITY GYEONGJU CAMPUS INDUSTRY- ACADEMY …, priority 2014, published 2017).
“Also recorded” adds a separate entry of the source.

Experiments:
[1] = DPPH free radical scavenging activity; assay type: biochemical; settings: 300 μM DPPH, 37° C., 30 minutes
Description: 40 μl of a sample was mixed with 760 μl of 300 μM 2,2-diphenyl-1-picrylhydrazyl (DPPH) and the mixture was incubated at 37° C. for 30 minutes, and then the mixture was aliquoted to each well of a 96-well plate in triplicate and absorbance was measured at 515 nm using a microplate reader. BHT was used as a positive control group.

[2] = system: HepG2 cells; experiment: Intracellular reactive oxygen species (ROS) activity, DHR123/FACS; assay type: cell-based; settings: 6 hours, compared to normal group / metformin alone
Description: After centrifugation at 1200 g for 5 minutes, a supernatant was discarded, and the remaining HepG2 cells were treated with 5 μg/ml of DHR123, followed by incubation at 37° C. for 30 minutes. After additional centrifugation for 5 minutes, PBS washing was performed two times and filtration was performed. Intracellular reactive oxygen species activity was measured based on the value of fluorescence intensity obtained from FACS analysis.

[3] = system: RAW 264.7 cells; experiment: LPS-induced nitrogen monoxide (NO) generation, GRIESS reaction; assay type: cell-based; settings: 1 μg/ml LPS, 24 hours, compared to LPS group / metformin alone
Description: To compare an anti-inflammatory function, an in vitro model of LPS-induced nitrogen monoxide (NO) generation was used in an experiment, and NO measurement was carried out using a cell supernatant based on the GRIESS reaction (Green et al., 1982). RAW 264.7 cells were seeded at a density of 1.5×10^5 cells/ml and pre-treated with samples diluted at various concentrations, and after 1 hour, the pretreated cells were treated with 1 μg/ml of lipopolysaccharide (LPS: Sigma, St Louis, Mo., USA), followed by incubation for 24 hours. 50 μl of a cell culture supernatant and 50 μl of 1% (w/v) sulfanilamide, a GRIESS reagent, were added to each well of a 96-well plate, and the 96-well plate shaded from light was incubated at room temperature for 10 minutes and then 50 μl of 0.1% (w/v) N-1-naphthylethylenediamine dissolved in 2.5% (v/v) phosphoric acid was added to each well of the 96-well plate and mixed, followed by incubation under dark conditions for 10 minutes. Absorbance was read at 540 nm using a microplate reader (Molecular Devices, CA, USA) within 30 minutes after finishing incubation. NO production was calculated using a nitric oxide standard solution.

[4] = system: 3T3-L1 cells; experiment: Fat cell differentiation (Oil red O staining); assay type: cell-based; settings: compared to control group / metformin alone
Description: After seeding 3T3-L1 cells into a 6-well plate at a density of 5×10^5 cells/well, the cells were cultured until reaching full confluence. The pre-existing culture medium for the cells was exchanged with DMEM (differentiation media) containing 1 μM dexamethasone, 0.5 mM IBMX, and 10 μg/ml insulin, and the cells were cultured for 48 hours and then were treated with DMEM (maturation media) containing 10 μg/ml insulin to induce differentiation. Differentiation-induced fat cells produced as a result of the process were treated with samples at various concentrations or a positive control group, and inhibitory effects on fat cell differentiation were analyzed using an Oil red O staining method, TG, and a TC assay.

[5] = system: L6 rat myoblast cells; experiment: Glucose uptake assay (2-NBDG); assay type: cell-based; settings: 2-NBDG 100 μg/ml; compared to control group / metformin alone
Description: Undifferentiated L6 rat myoblast cells were differentiated into myotube cells using 2% horse serum. […] When performing measurement, apigenin, a compound that inhibits glucose uptake, was used as a control.

[6] = system: RIN-m5F insulinoma cells; experiment: Insulin secretion assay (rat insulin ELISA); assay type: cell-based; settings: […] metformin with extract, 20 mM glucose
Description: A portion of cell culture supernatant was subjected to centrifugation at 4° C. for 10 minutes, and after centrifugation, a supernatant was collected and stored at −20° C. for further use. The amount of secreted insulin was measured using a rat insulin ELISA kit (Mercodia, Sweden), and an insulin secretion amount per gram of proteins was calculated by measuring the concentration of cellular proteins in each well.

[7] = system: AMPK-α; experiment: AMPK-α gene expression (real-time PCR) in RAW 264.7 cells; assay type: cell-based; settings: normal group (N) 0.80
Description: (§1) Total RNA was separated and purified using TRIsure (Bioline, USA) according to a protocol. 1 μg of total RNAs was subjected to a reverse transcription reaction using a cDNA synthesis kit (Sprint™RT Complete Oligo-(dT)18, Clontech, Mountain View, Calif., USA) according to a protocol for synthesizing first strand cDNA. The produced RT-PCR sample was subjected to real-time PCR reaction, in which the final reaction volume was adjusted to 20 μl and Light Cycler-Fast Start DNA Master SYBR Green (Roche Applied Science, Indianapolis, Ind., USA) and a Light Cycler instrument (Roche Applied Science) were used.
(§2) PCR amplification was performed according to PCR steps, consisting of a pre-incubation step at 95° C. for 10 minutes and 35 (for beta-actin) or 45 (for C/EBPa) cycles of amplification (denaturation at 95° C. for 10 seconds, annealing at 52° C. for 10 seconds, and extension at 72° C. for 15 seconds). Total RNA was separated and purified using TRIsure (Bioline, USA) according to a protocol. 1 μg of total RNAs was subjected to a reverse transcription reaction using a cDNA synthesis kit (Sprint™RT Complete Oligo-(dT)18, Clontech, Mountain View, Calif., USA) according to a protocol for synthesizing first strand cDNA. […]

[8] = system: PPAR-α; experiment: PPAR-α gene expression (real-time PCR) in RAW 264.7 cells; assay type: cell-based; settings: normal group (N) 1.01
Description: as §1, §2

[9] = system: XBP-1; experiment: XBP-1 gene expression (real-time PCR) in RAW 264.7 cells; assay type: cell-based; settings: normal group (N) 1.00
[10] = system: TNF-α; experiment: TNF-α gene expression (real-time PCR) in RAW 264.7 cells; assay type: cell-based; settings: normal group (N) 1.01
[11] = system: OLETF/LETO rats; experiment: Intraperitoneal insulin tolerance test (IPITT); assay type: in vivo, rat; settings: metformin 100 mg/kg alone or with 200 mg/kg extract, insulin 1 U/kg IP
[12] = in vivo; settings: rat, po, 100 mg/kg
[13] = system: IL-6; experiment: IL-6 gene expression (real-time PCR) in RAW 264.7 cells; settings: normal group (N) 1.11

DPPH free radical scavenging IC50 [1] [µg/mL] | CL renal ([12]; blood and urine) [mL/min/kg] | AUC(0-t) ([12]; blood) [ng·h/mL] | CL/F ([12]; blood) [mL/min/kg] | Cmax ([12]; blood) [ng/mL] | Tmax ([12]; blood) [h] | Structure (SMILES) | intracellular ROS activity [2] | production amount of nitrogen monoxide [3] | lipid formation attributed to differentiation of 3T3-L1 preadipocytes [4] | capacity of glucose uptake [5] | amount of insulin secretion [6] | gene expression level of AMPK-α [7] | gene expression level of PPAR-α [8] | gene expression level of XBP-1 [9] | gene expression level of TNF-α [10] | insulin resistance (IPITT, blood sugar AUC) [11] | gene expression level of IL-6 [13]
113.85 | – | – | – | – | – | Cc1cc(C(C)(C)C)c(O)c(C(C)(C)C)c1 [BHT] | – | – | – | – | – | – | – | – | – | – | –
– | 40.3 ± 13.8 | 29000 | 54.3 ± 15.4 | 7650 ± 3100 | 1.5 | CN(C)C(=N)N=C(N)N [Metformin, metformin] | tendency of decreasing intracellular reactive oxygen species (ROS) activity | production amount of nitrogen monoxide was decreased | tendency of decreasing lipid formation | increased capacity of glucose uptake | significant changes in the amounts of insulin secretion were not observed | 0.76 | 0.68 | 1.01 | 1.34 | tendency to decrease; also recorded: tendency of decreasing | 1.91
